Measurements taken from ChEMBL document CHEMBL3046265, “Synthesis, evaluation of antimicrobial activity, and molecular modeling of novel 2-((4-(2H-benzo[d] [1,2,3] triazol-2-yl)piperidin-1-yl)methyl)-5-substituted phenyl-1,3,4-oxadiazoles” (2013).

Experiments:
Type in all cases: functional
Details in all cases: read-out: IZ
Enterococcus faecalis [1] = assay: Antibacterial activity against Enterococcus faecalis at 900 ug/ml after overnight incubation
Klebsiella aerogenes [2] = assay: Antibacterial activity against Enterobacter aerogenes at 900 ug/ml after overnight incubation
Escherichia coli [3] = assay: Antibacterial activity against Escherichia coli at 600 ug/ml after overnight incubation
Candida albicans [4] = assay: Antifungal activity against Candida albicans at 600 ug/ml after 48 hr
Fusarium oxysporum [5] = assay: Antifungal activity against Fusarium oxysporum at 300 ug/ml after 48 hr
Streptococcus pyogenes [6] = assay: Antibacterial activity against Streptococcus pyogenes at 900 ug/ml after overnight incubation
Bacillus pumilus [7] = assay: Antibacterial activity against Bacillus pumilus at 900 ug/ml after overnight incubation
Candida albicans [8] = assay: Antifungal activity against Candida albicans at 1200 ug/ml after 48 hr
Exserohilum rostratum [9] = assay: Antifungal activity against Setosphaeria rostrata at 600 ug/ml after 48 hr
Bacillus pumilus [10] = assay: Antibacterial activity against Bacillus pumilus at 600 ug/ml after overnight incubation
Enterococcus faecalis [11] = assay: Antibacterial activity against Enterococcus faecalis at 600 ug/ml after overnight incubation
Priestia megaterium [12] = assay: Antibacterial activity against Bacillus megaterium at 600 ug/ml after overnight incubation
Colletotrichum falcatum [13] = assay: Antifungal activity against Glomerella tucumanensis at 1200 ug/ml after 48 hr
Fusarium oxysporum [14] = assay: Antifungal activity against Fusarium oxysporum at 1200 ug/ml after 48 hr
Staphylococcus aureus [15] = assay: Antibacterial activity against Staphylococcus aureus at 900 ug/ml after overnight incubation
Priestia megaterium [16] = assay: Antibacterial activity against Bacillus megaterium at 900 ug/ml after overnight incubation
Colletotrichum falcatum [17] = assay: Antifungal activity against Glomerella tucumanensis at 600 ug/ml after 48 hr
Klebsiella aerogenes [18] = assay: Antibacterial activity against Enterobacter aerogenes at 600 ug/ml after overnight incubation
Exserohilum rostratum [19] = assay: Antifungal activity against Setosphaeria rostrata at 300 ug/ml after 48 hr
Proteus vulgaris [20] = assay: Antibacterial activity against Proteus vulgaris at 900 ug/ml after overnight incubation
Colletotrichum falcatum [21] = assay: Antifungal activity against Glomerella tucumanensis at 300 ug/ml after 48 hr
Bacillus subtilis [22] = assay: Antibacterial activity against Bacillus subtilis at 600 ug/ml after overnight incubation
Candida albicans [23] = assay: Antifungal activity against Candida albicans at 900 ug/ml after 48 hr
Klebsiella pneumoniae [24] = assay: Antibacterial activity against Klebsiella pneumoniae at 600 ug/ml after overnight incubation
Exserohilum rostratum [25] = assay: Antifungal activity against Setosphaeria rostrata at 1200 ug/ml after 48 hr
Bacillus subtilis [26] = assay: Antibacterial activity against Bacillus subtilis at 900 ug/ml after overnight incubation
Candida albicans [27] = assay: Antifungal activity against Candida albicans at 300 ug/ml after 48 hr
Klebsiella pneumoniae [28] = assay: Antibacterial activity against Klebsiella pneumoniae at 900 ug/ml after overnight incubation
Staphylococcus aureus [29] = assay: Antibacterial activity against Staphylococcus aureus at 600 ug/ml after overnight incubation
Streptococcus pyogenes [30] = assay: Antibacterial activity against Streptococcus pyogenes at 600 ug/ml after overnight incubation
Fusarium oxysporum [31] = assay: Antifungal activity against Fusarium oxysporum at 900 ug/ml after 48 hr
Fusarium oxysporum [32] = assay: Antifungal activity against Fusarium oxysporum at 600 ug/ml after 48 hr
Escherichia coli [33] = assay: Antibacterial activity against Escherichia coli at 900 ug/ml after overnight incubation
Colletotrichum falcatum [34] = assay: Antifungal activity against Glomerella tucumanensis at 900 ug/ml after 48 hr
Exserohilum rostratum [35] = assay: Antifungal activity against Setosphaeria rostrata at 900 ug/ml after 48 hr
Proteus vulgaris [36] = assay: Antibacterial activity against Proteus vulgaris at 600 ug/ml after overnight incubation

SMILES | zone of inhibition at 900 µg/mL (Enterococcus faecalis [1]) | zone of inhibition at 900 µg/mL (Klebsiella aerogenes [2]) | zone of inhibition at 600 µg/mL (Escherichia coli [3]) | zone of inhibition at 600 µg/mL (Candida albicans [4]) | zone of inhibition at 300 µg/mL (Fusarium oxysporum [5]) | zone of inhibition at 900 µg/mL (Streptococcus pyogenes [6]) | zone of inhibition at 900 µg/mL (Bacillus pumilus [7]) | zone of inhibition at 1200 µg/mL (Candida albicans [8]) | zone of inhibition at 600 µg/mL (Exserohilum rostratum [9]) | zone of inhibition at 600 µg/mL (Bacillus pumilus [10]) | zone of inhibition at 600 µg/mL (Enterococcus faecalis [11]) | zone of inhibition at 600 µg/mL (Priestia megaterium [12]) | zone of inhibition at 1200 µg/mL (Colletotrichum falcatum [13]) | zone of inhibition at 1200 µg/mL (Fusarium oxysporum [14]) | zone of inhibition at 900 µg/mL (Staphylococcus aureus [15]) | zone of inhibition at 900 µg/mL (Priestia megaterium [16]) | zone of inhibition at 600 µg/mL (Colletotrichum falcatum [17]) | zone of inhibition at 600 µg/mL (Klebsiella aerogenes [18]) | zone of inhibition at 300 µg/mL (Exserohilum rostratum [19]) | zone of inhibition at 900 µg/mL (Proteus vulgaris [20]) | other results
CC(C)(C)c1cc(-c2nnc(CN3CCC(n4nc5ccccc5n4)CC3)o2)cc(C(C)(C)C)c1 | 11.6 mm | 7.25 mm | 3.25 mm | 7.08 mm | 4.5 mm | 8.95 mm | 9.95 mm | 29.9 mm | 8.25 mm | 4.56 mm | 5.85 mm | 3.95 mm | 32 mm | 33.8 mm | 9.05 mm | 8.21 mm | 8.32 mm | 3.5 mm | 4.54 mm | 9.45 mm | zone of inhibition at 300 µg/mL (Colletotrichum falcatum [21]): 3.98 mm; zone of inhibition at 600 µg/mL (Bacillus subtilis [22]): 5.05 mm; zone of inhibition at 900 µg/mL (Candida albicans [23]): 15 mm; zone of inhibition at 600 µg/mL (Klebsiella pneumoniae [24]): 3.85 mm; zone of inhibition at 1200 µg/mL (Exserohilum rostratum [25]): 29.8 mm; zone of inhibition at 900 µg/mL (Bacillus subtilis [26]): 11.2 mm; zone of inhibition at 300 µg/mL (Candida albicans [27]): 3.97 mm; zone of inhibition at 900 µg/mL (Klebsiella pneumoniae [28]): 7.85 mm; zone of inhibition at 600 µg/mL (Staphylococcus aureus [29]): 4.3 mm; zone of inhibition at 600 µg/mL (Streptococcus pyogenes [30]): 3.95 mm; zone of inhibition at 900 µg/mL (Fusarium oxysporum [31]): 17.9 mm; zone of inhibition at 600 µg/mL (Fusarium oxysporum [32]): 9.25 mm; zone of inhibition at 900 µg/mL (Escherichia coli [33]): 6.8 mm; zone of inhibition at 900 µg/mL (Colletotrichum falcatum [34]): 15.8 mm; zone of inhibition at 900 µg/mL (Exserohilum rostratum [35]): 15.9 mm; zone of inhibition at 600 µg/mL (Proteus vulgaris [36]): 4.95 mm
Fc1cccc(-c2nnc(CN3CCC(n4nc5ccccc5n4)CC3)o2)c1F | 5.36 mm | 5.45 mm | 3.25 mm | 5.25 mm | 4.21 mm | 3.15 mm | 7.24 mm | 17.2 mm | 7.86 mm | 3.35 mm | 2.35 mm | 5.86 mm | 33.9 mm | 25.4 mm | 7.56 mm | 11.2 mm | 9.25 mm | 2.09 mm | 3.81 mm | 8.74 mm | zone of inhibition at 300 µg/mL (Colletotrichum falcatum [21]): 4.82 mm; zone of inhibition at 600 µg/mL (Bacillus subtilis [22]): 4.8 mm; zone of inhibition at 900 µg/mL (Candida albicans [23]): 9.86 mm; zone of inhibition at 600 µg/mL (Klebsiella pneumoniae [24]): 6.23 mm; zone of inhibition at 1200 µg/mL (Exserohilum rostratum [25]): 29.8 mm; zone of inhibition at 900 µg/mL (Bacillus subtilis [26]): 9.56 mm; zone of inhibition at 300 µg/mL (Candida albicans [27]): 3.33 mm; zone of inhibition at 900 µg/mL (Klebsiella pneumoniae [28]): 13.2 mm; zone of inhibition at 600 µg/mL (Staphylococcus aureus [29]): 4.25 mm; zone of inhibition at 600 µg/mL (Streptococcus pyogenes [30]): 1.13 mm; zone of inhibition at 900 µg/mL (Fusarium oxysporum [31]): 13.2 mm; zone of inhibition at 600 µg/mL (Fusarium oxysporum [32]): 7.01 mm; zone of inhibition at 900 µg/mL (Escherichia coli [33]): 7.15 mm; zone of inhibition at 900 µg/mL (Colletotrichum falcatum [34]): 17.8 mm; zone of inhibition at 900 µg/mL (Exserohilum rostratum [35]): 15 mm; zone of inhibition at 600 µg/mL (Proteus vulgaris [36]): 4.56 mm
CCC(C)n1ncn(-c2ccc(N3CCN(c4ccc(OCC5COC(Cn6cncn6)(c6ccc(Cl)cc6Cl)O5)cc4)CC3)cc2)c1=O (centres undefined) [ITRACONAZOLE] |  |  |  | 5.35 mm | 4.82 mm |  |  | 25.1 mm | 7.56 mm |  |  |  | 33.4 mm | 39.6 mm |  |  | 9.34 mm |  | 3.58 mm |  | zone of inhibition at 300 µg/mL (Colletotrichum falcatum [21]): 4.67 mm; zone of inhibition at 900 µg/mL (Candida albicans [23]): 12 mm; zone of inhibition at 1200 µg/mL (Exserohilum rostratum [25]): 29.6 mm; zone of inhibition at 300 µg/mL (Candida albicans [27]): 2.62 mm; zone of inhibition at 900 µg/mL (Fusarium oxysporum [31]): 20 mm; zone of inhibition at 600 µg/mL (Fusarium oxysporum [32]): 10.8 mm; zone of inhibition at 900 µg/mL (Colletotrichum falcatum [34]): 18.3 mm; zone of inhibition at 900 µg/mL (Exserohilum rostratum [35]): 14.8 mm
Brc1cccc(-c2nnc(CN3CCC(n4nc5ccccc5n4)CC3)o2)c1 | 5.8 mm | 11.6 mm | 3.25 mm | 4.03 mm | 3.55 mm | 7.25 mm | 8.12 mm | 16.8 mm | 4.01 mm | 4.25 mm | 3.21 mm | 3.26 mm | 17.8 mm | 29.9 mm | 8.25 mm | 7.25 mm | 5.01 mm | 5.85 mm | 3.98 mm | 5.03 mm | zone of inhibition at 300 µg/mL (Colletotrichum falcatum [21]): 2.95 mm; zone of inhibition at 600 µg/mL (Bacillus subtilis [22]): 4.25 mm; zone of inhibition at 900 µg/mL (Candida albicans [23]): 7.86 mm; zone of inhibition at 600 µg/mL (Klebsiella pneumoniae [24]): 3.25 mm; zone of inhibition at 1200 µg/mL (Exserohilum rostratum [25]): 15.1 mm; zone of inhibition at 900 µg/mL (Bacillus subtilis [26]): 9.25 mm; zone of inhibition at 300 µg/mL (Candida albicans [27]): 2.5 mm; zone of inhibition at 900 µg/mL (Klebsiella pneumoniae [28]): 7.62 mm; zone of inhibition at 600 µg/mL (Staphylococcus aureus [29]): 4.46 mm; zone of inhibition at 600 µg/mL (Streptococcus pyogenes [30]): 3.85 mm; zone of inhibition at 900 µg/mL (Fusarium oxysporum [31]): 15.8 mm; zone of inhibition at 600 µg/mL (Fusarium oxysporum [32]): 7.86 mm; zone of inhibition at 900 µg/mL (Escherichia coli [33]): 6.45 mm; zone of inhibition at 900 µg/mL (Colletotrichum falcatum [34]): 9.25 mm; zone of inhibition at 900 µg/mL (Exserohilum rostratum [35]): 7.96 mm; zone of inhibition at 600 µg/mL (Proteus vulgaris [36]): 2.25 mm
CN[C@@H]1[C@H](O[C@H]2[C@H](O[C@H]3[C@H](O)[C@@H](O)[C@H](N=C(N)N)[C@@H](O)[C@@H]3N=C(N)N)O[C@@H](C)[C@]2(O)C=O)O[C@@H](CO)[C@H](O)[C@H]1O [STREPTOMYCIN] | 20.3 mm | 8.76 mm | 3.06 mm |  |  | 16.5 mm | 14.5 mm |  |  | 7.25 mm | 12.8 mm | 6.23 mm |  |  | 20 mm | 12.8 mm |  | 4.47 mm |  | 16.1 mm | zone of inhibition at 600 µg/mL (Bacillus subtilis [22]): 8.44 mm; zone of inhibition at 600 µg/mL (Klebsiella pneumoniae [24]): 3.24 mm; zone of inhibition at 900 µg/mL (Bacillus subtilis [26]): 16.2 mm; zone of inhibition at 900 µg/mL (Klebsiella pneumoniae [28]): 6.54 mm; zone of inhibition at 600 µg/mL (Staphylococcus aureus [29]): 10.3 mm; zone of inhibition at 600 µg/mL (Streptococcus pyogenes [30]): 8.91 mm; zone of inhibition at 900 µg/mL (Escherichia coli [33]): 6.14 mm; zone of inhibition at 600 µg/mL (Proteus vulgaris [36]): 8.9 mm
